Values of other authors, collected in US20220211661A1, “GREEN TEA CATECHINS EUTECTIC SYSTEM” (ASSISTANCE PUBLIQUE - HOPITAUX DE PARIS, priority 2019, published 2022).

Details: after 1-h ultra violet irradiation

- EGCG decomposed: 70%
Substance: (-)-epigallocatechin-3-gallate [EGCG]
